Measurements as given in patent publication EP0037780A1, “Alcoxy-propanol amines useful as medicines, and process for their preparation” (PIERRE FABRE S.A., priority 1980, dated 1981).
≈ marks a conversion by molar mass, not a printed value. Read-outs that look alike come from different tables or passages of the source.

Assay: Solubility
Format: physicochemical
Settings: read-out: Solubilité
Excerpt: Chromatographie sur plaque : • - support : gel de silice 60 F 254 Merck • - solvant : chloroforme - méthanol - ammoniaque 80/18/2 • - révélation : iode • - Rf : 0,65 Solubilité : soluble à 5 % dans l'eau.
Chromatographie sur plaque : • - support : gel de silice 60 F 254 Merck • - solvant : chloroforme - méthanol - ammoniaque 80/18/2 • - révélation : iode • - Rf : 0,6 Solubilité : soluble à 1 % dans l'eau.
Chromatographie sur plaque : • - support : gel de silice 60 F 254 Merck • - solvant : chloroforme - méthanol - ammoniaque 80/18/2 • - révélation : Réactif de Dragendorf et iode • - Rf : 0,65 Solubilité : soluble à 2 % dans une solution aqueuse d'acide chlorhydrique (0,1 N) et à 1 % dans le propylène glycol.

Structure (SMILES) | solubility (water, dans l'eau) [mg/mL] | solubility (0.1 n aqueous hydrochloric acid, dans une solution aqueuse d'acide chlorhydrique (0,1 N)) [mg/mL] | solubility (propylene glycol, organic solvent or mixture, dans le propylène glycol) [mg/mL]
CCCCOCC(O)CNC(C)C (stereo not shown) [Exemple 1, isopropylamino-3 butoxy-1 propanol-2] | 50 (≈ 264 mM) |  | 
CC(C)=CCCC(C)CCOCC(O)CNC(C)C (stereo not shown) [Exemple 3, isopropylamino-3 (diméthyl-3,7 octène-6 yloxy)-1 propanol-2] |  | 20 (≈ 73.7 mM) | 10 (≈ 36.8 mM)
CCCCOCC(O)CNC(C)(C)C (stereo not shown) [Exemple 2, tertiobutylamino-3 butoxy-1 propanol-2] | 10 (≈ 49.2 mM) |  | 
